Results from PMC7765388, “Synthesis and In Vitro Antiprotozoan Evaluation of 4-/8-Aminoquinoline-based Lactams and Tetrazoles” (Molecules, 2020).
pIC50: −log10 of the molar value. Read-outs that look alike come from different tables or passages of the source.

Assays:
[1] = test system: P. falciparum K1 strain; test: In vitro antiplasmodium activity, 3H-hypoxanthine incorporation assay; format: cell-based, Plasmodium falciparum; details: for pIC50: read-out: P. falciparum K1 IC50; for Selectivity Indices (SI) [(IC50 L6 Cell Line)/(IC50 K1 strain)]: L6 vs K1
Experimental: (§1) Antiplasmodial activity on the K1 strain, antitrypanosomal activity on T. b. brucei rhodesiense STIB900 and cytotoxicity on the L6 mammalian cell-line were all carried out at the Swiss Tropical and Public Health Institute (STPH), Switzerland as follows:
In vitro activity against erythrocytic stages of P. falciparum was determined using a ^3H-hypoxanthine incorporation assay, using the chloroquine and pyrimethamine-resistant K1 strain that originates from Thailand and the standard drug chloroquine (Sigma C6628). Compounds were dissolved in DMSO at 10 mg/mL and added to parasite cultures incubated in RPMI 1640 medium without hypoxanthine, supplemented with HEPES (5.94 g/L), NaHCO3 (2.1 g/L), neomycin (100 U/mL), Albumax^R (5 g/L) and washed human red cells A^+ at 2.5% hematocrit (0.3% parasitemia). Serial drug dilutions of eleven three-fold dilution steps covering a range from 100 to 0.002 μg/mL were prepared. The 96-well plates were incubated in a humidified atmosphere at 37 °C; 4% CO2, 3% O2, 93% N2. After 48 h, 50 μL of ^3H-hypoxanthine (= 0.5 μCi) was added to each well of the plate. The test compounds were tested in triplicate ad parasite growth compared to control or blank well. The plates were incubated for a further 24 h under the same conditions. The plates were then harvested with a Betaplate™ cell harvester (Wallac, Zurich, Switzerland), and the red blood cells transferred onto a glass fiber filter then washed with distilled water. The dried filters were inserted into a plastic foil with 10 mL of scintillation fluid and counted in a Betaplate™ liquid scintillation counter (Wallac, Zurich, Switzerland). IC50 values were calculated from sigmoidal inhibition curves by linear regression using Microsoft Excel.

[2] = test system: Trypanosoma brucei rhodesiense STIB900; test: In vitro antitrypanosomal activity, alamarBlue assay; format: cell-based; details: STIB900 bloodstream forms, 70 h + 2-4 h alamarBlue, read-out: T. b. brucie T. b. rhod IC50
Experimental: as §1
This stock was isolated in 1982 from a human patient in Tanzania and, after several mouse passages, was cloned and adapted to axenic culture conditions. Minimum essential medium (50 µL) supplemented with 25 mM HEPES, 1 g/L additional glucose, 1% MEM non-essential amino acids (100×), 0.2 mM 2-mercaptoethanol, 1 mM Na-pyruvate and 15% heat-inactivated horse serum was added to each well of a 96-well microtiter plate. Serial drug dilutions of eleven three-fold dilution steps covering a range from 100 to 0.002 μg/mL were prepared. Then, 4 × 10^3 bloodstream forms of T. b. rhodesiense STIB 900 in 50 µL was added to each well and the plate incubated at 37 °C under a 5% CO2 atmosphere for 70 h. 10 µL alamarBlue (resazurin, 12.5 mg in 100 mL double-distilled water) was then added to each well and incubation continued for a further 2–4 h. Then the plates were read with a Spectramax Gemini XS microplate fluorometer (Molecular Devices Cooperation, Sunnyvale, CA, USA) using an excitation wavelength of 536 nm and an emission wavelength of 588 nm. The test compounds were tested in triplicate, and their IC50 values were calculated by linear regression from the sigmoidal dose inhibition curves using Softmax Pro software (Molecular Devices Cooperation, Sunnyvale, CA, USA).

[3] = Aqueous kinetic solubility; format: physicochemical
Experimental: A 10 mM stock of the compound was diluted in DMSO to give standard solutions at 220 µM, 100 µM and 10 µM in a 96 well plate as described previously. The 10 mM stock was then spiked 1:50 in phosphate-buffered saline pH 7.0 to give a final DMSO concentration of 2%. Both the standard and sample solutions were plated in triplicate. After shaking for 2 h at 25 °C, the solutions were filtered and analyzed on an Agilent 1200 series HPLC with DAD detection. The solubility of the test compounds was determined by comparing the peak area of the sample solutions to that of the standard solutions.

[4] = In vitro cytotoxicity with L-6 cells, alamarBlue assay; format: cell-based; details: rat, L6 cells, 70 h + 2 h alamarBlue, read-out: Cytotoxicity L6 Cell Lines IC50
Experimental: as §1
Assays were performed in triplicate in 96-well microtiter plates, each well containing 100 μL of RPMI 1640 medium supplemented with 1% L-glutamine (200 mM) and 10% fetal bovine serum, and 4000 L-6 cells (a primary cell line derived from rat skeletal myoblasts). Serial drug dilutions of eleven three-fold dilution steps covering a range from 100 to 0.002 μg/mL were prepared. After 70 h of incubation, the plates were inspected under an inverted microscope to assure the growth of the controls and sterile conditions. 10 μL of alamarBlue was then added to each well, and the plates incubated for another 2 h. Then the plates were read with a Spectramax Gemini XS microplate fluorometer (Molecular Devices Cooperation, Sunnyvale, CA, USA) using an excitation wavelength of 536 nm and an emission wavelength of 588 nm. The IC50 values were calculated by linear regression from the sigmoidal dose inhibition curves using Softmax Pro software (Molecular Devices Cooperation, Sunnyvale, CA, USA).

[5] = multidrug-resistant (chloroquine and pyrimethamine-resistant) K1 strain, erythrocytic stages, 72 h
[6] = Plasmodium falciparum, K1, 72 h
[7] = Plasmodium falciparum, multidrug-resistant (chloroquine and pyrimethamine-resistant) K1 strain, erythrocytic stages, 72 h
[8] = L-6 cells (rat skeletal myoblasts)
[9] = aqueous buffer, kinetic from dmso stock, phosphate-buffered saline pH 7.0, 2% DMSO, 2 h at 25 °C

Row | Molecule | pIC50 [1, 5] | pIC50 [2] | Selectivity Indices (SI) [(IC50 L6 Cell Line)/(IC50 K1 strain)] [1] | pIC50 [1, 7] | pIC50 ([2]; Trypanosoma brucei) | IC50 at 72 h [4, 8] [µM] | further results
1 | 1-[2-(7-Chloroquinolin-4-ylamino)ethyl]-3-methoxy-4-(4-methoxyphenyl)azetidin-2-one [Compound 4b] | 6.21 | 4.28 | – | – | – | – | –
2 | 1-[2-(7-Chloroquinolin-4-ylamino)ethyl]-3-methoxy-4-p-tolylazetidin-2-one [Compound 4c] | 6.24 | 4.28 | – | – | – | – | –
3 | 1-[2-(7-Chloroquinolin-4-ylamino)ethyl]-4-(4-chlorophenyl)-3-methoxyazetidin-2-one [Compound 4e] | 6.52 | 5.15 | – | – | – | – | solubility kinetic at 2 h ([3]; pH 7): >200 µM
4 | CCN(CC)CCCC(C)Nc1ccnc2cc(Cl)ccc12 (stereo not shown) [Chloroquine, reference compound] | – | – | – | – | – | – | pIC50 [1, 6]: 6.66
5 | COC1C(=O)N(CCNc2ccnc3cc(Cl)ccc23)C1c1ccccc1 (stereo not shown) [Compound 4a, 1-[2-(7-Chloroquinolin-4-ylamino)ethyl]-3-methoxy-4-phenylazetidin-2-one] | – | – | 211 | 6.33 | 4.27 | 98.5 | solubility kinetic at 2 h [3, 9]: > 200 µM
6 | COC1C(=O)N(CCNc2ccnc3cc(Cl)ccc23)C1c1ccc(Cl)c(Cl)c1 (stereo not shown) [Compound 4d, 1-[2-(7-Chloroquinolin-4-ylamino)ethyl]-4-(3,4-dichlorophenyl)-3-methoxyazetidin-2-one] | – | – | 43 | 6.70 | 4.72 | 8.54 | –
7 | COC1C(=O)N(CCCNc2ccnc3cc(Cl)ccc23)C1c1ccccc1 (stereo not shown) [Compound 4f, 1-[3-(7-Chloroquinolin-4-ylamino)propyl]-3-methoxy-4-phenylazetidin-2-one] | – | – | 25 | 6.24 | 4.79 | 14.4 | –
8 | COC1C(=O)N(CCCCNc2ccnc3cc(Cl)ccc23)C1c1ccccc1 (stereo not shown) [Compound 4g, 1-[4-(7-Chloroquinolin-4-ylamino)butyl]-3-methoxy-4-phenylazetidin-2-one] | – | – | 9 | 6.51 | 4.70 | 2.87 | solubility kinetic at 2 h [3, 9]: > 200 µM
9 | COc1cccc(C(NCCCC(C)Nc2cc(OC)cc3cccnc23)c2nnnn2C(C)(C)C)c1 (stereo not shown) [Compound 6b] | – | – | 38 | 5.70 | 4.85 | 75.5 | –
10 | COc1cc([C@@H]2c3cc4c(cc3[C@H](O)[C@H]3COC(=O)[C@H]23)OCO4)cc(OC)c1OC [Podophyllotoxin, reference compound] | – | – | – | – | – | – | IC50 at 72 h [4]: 0.0193 µM
11 | COc1cc(NC(C)CCCN)c2ncccc2c1 (stereo not shown) [Primaquine, reference compound] | – | – | – | – | – | – | pIC50 [1, 6]: 6.19
12 | N-{5-[(1-tert-butyl-1H-tetrazol-5-yl)(3,4-dichlorophenyl)methylamino]pentan-2-yl}-6-methoxyquinolin-8-amine [Compound 6d] | 5.88 | 4.74 | – | – | – | – | solubility kinetic at 2 h ([3]; pH 7): <5 µM
13 | N-{5-[(1-tert-butyl-1H-tetrazol-5-yl)(4-chlorophenyl)methylamino]pentan-2-yl}-6-methoxyquinolin-8-amine [Compound 6e] | 5.74 | 4.67 | – | – | – | – | solubility kinetic at 2 h ([3]; pH 7): <15 µM
14 | N-{5-[(1-tert-butyl-1H-tetrazol-5-yl)(p-tolyl)methylamino]pentan-2-yl}-6-methoxyquinolin-8-amine [Compound 6c] | 5.80 | 4.73 | – | – | – | – | solubility kinetic at 2 h ([3]; pH 7): <5 µM
15 | N-{5-[(1-tert-butyl-1H-tetrazol-5-yl)(phenyl)methylamino]pentan-2-yl}-6-methoxyquinolin-8-amine [Compound 6a] | 5.61 | 4.74 | – | – | – | – | –
